{"source": "patent US9976149B2", "about": "“Modified listeria bacteria and uses thereof” (priority 2014, dated 2018)", "key": {"[1]": {"system": "WT bacteria", "assay": "Minimal inhibitory concentration for WT bacteria", "type": "cell-based", "conditions": "Listeria monocytogenes", "method": "(§1) Overnight cultures were adjusted to 0.03 O.D.600 in 20 ml fresh BHI broth, supplemented when indicated with 0.25 mM IPTG, 0.08 μg ml^−1 penicillin G, 1 μg ml^−1 vancomycin or 3 μg ml^−1 c-di-AMP. For bacterial RNA extraction, bacteria were grown at 37° C. to O.D.600 0.4, then supplemented with 3 μg ml^−1 lincomycin, 50 μM rhodamine 6 G (R6G), 1 μg ml^−1 vancomycin, 0.08 μg ml^−1 penicillin G for 2 h; or centrifuged and resuspended in minimal media pH 5 (lactic acid), minimal media with 10 mM H2O2, or defined minimal media pH 5 with 10 mM H2O2 for 30 mM For microscopy bacteria were grown similarly and supplemented with 1 μg ml^−1 vancomycin for 2 h. Growth curves in the presence of drugs were performed in a Synergy HT BIOTEK® plate reader at 37° C. with continuous shaking following O.D.600 every 15 min for 24 h. Of note, bacterial growth in the plate reader is different than in flasks in respect to the O.D. levels that are measured. In each experiment, growth conditions are indicated."}, "[2]": {"system": "ΔmdrMTAC", "assay": "Minimal inhibitory concentration for ΔmdrMTAC", "type": "cell-based", "conditions": "Listeria monocytogenes, read-out: minimal inhibitory concentration"}, "[3]": {"system": "WT bacteria", "assay": "TEM sections, cell wall thickness under vancomycin treatment, WT bacteria", "type": "cell-based, Listeria monocytogenes", "conditions": "vancomycin 1 μg ml^−1 for 2 h", "method": "as §1\nBacteria were grown as described above with and without vancomycin treatment. For negative staining, PBS washed bacteria were adsorbed on formvar/carbon coated grids and stained with 2% aqueous uranyl acetate. For TEM sections, a bacterial pellet from 20 ml of culture was fixed in 2.5% glutaraldehyde in PBS at 4° C. for 20 h, washed three times with PBS and post-fixed in 1% OsO4 in PBS at 4° C. for 2 h. […]"}, "[4]": {"system": "dacA gene transcription in WT bacteria", "assay": "RT-qPCR of dacA transcription upon vancomycin treatment, WT bacteria", "type": "cell-based, Listeria monocytogenes", "method": "as §1, with “[…];” for “1 μg ml^−1 vancomycin, 0.08 μg ml^−1 penicillin G for 2 h;”\nRNA was purified from bacteria in mid-log growth in BHI or from infected cells using standard phenol-chloroform extraction methods. RNA from intracellularly grown bacteria was amplified using MESSAGEAMP™ II (AMBION™) bacterial RNA amplification kit according to the manufacturer's instructions. RNA of infected macrophages was extracted using TRIZOL® reagent according to standard protocols. […]"}, "[5]": {"system": "ΔmdrMTAC mutant", "assay": "Growth curves in BHI with added cyclic dinucleotide, ΔmdrMTAC mutant", "type": "cell-based, Listeria monocytogenes", "conditions": "for effect on growth in the absence of vancomycin stress: BHI, dinucleotide 3 μg ml^−1; for effect on growth in the presence of vancomycin: vancomycin 1 μg ml^−1, dinucleotide 3 μg ml^−1", "method": "as §1"}, "[6]": {"system": "WT L. monocytogenes", "assay": "Growth curves in BHI with added cyclic dinucleotide, WT bacteria", "type": "cell-based, Listeria monocytogenes", "conditions": "for effect on growth in the absence of vancomycin stress: BHI, dinucleotide 3 μg ml^−1; for effect on growth in the presence of vancomycin: vancomycin 1 μg ml^−1, dinucleotide 3 μg ml^−1", "method": "as §1"}}, "data": [{"molecule": "CC1(C)S[C@@H]2[C@H](NC(=O)Cc3ccccc3)C(=O)N2[C@H]1C(=O)O", "note": "[penicillin, penicillin G]", "values": [{"measurement": "MIC", "setting": "[1]", "value": 0.15, "unit": "µg/mL"}, {"measurement": "MIC", "setting": "[2]", "value": 0.08, "unit": "µg/mL"}]}, {"molecule": "CN[C@H](CC(C)C)C(=O)N[C@H]1C(=O)N[C@@H](CC(N)=O)C(=O)N[C@H]2C(=O)N[C@H]3C(=O)N[C@H](C(=O)N[C@H](C(=O)O)c4cc(O)cc(O)c4-c4cc3ccc4O)[C@H](O)c3ccc(c(Cl)c3)Oc3cc2cc(c3O[C@@H]2O[C@H](CO)[C@@H](O)[C@H](O)[C@H]2O[C@H]2C[C@](C)(N)[C@H](O)[C@H](C)O2)Oc2ccc(cc2Cl)[C@H]1O", "note": "[vancomycin]", "values": [{"measurement": "MIC", "setting": "[1]", "value": 2, "unit": "µg/mL"}, {"measurement": "MIC", "setting": "[2]", "value": 1.5, "unit": "µg/mL"}, {"measurement": "cell wall thickness, average", "setting": "[3]", "value": 35, "unit": "nm"}, {"measurement": "dacA transcription level in comparison to non-treated bacteria", "setting": "[4]; sub-lethal vancomycin 1 μg ml^−1", "value": 1.5, "unit": "fold"}, {"measurement": "dacA transcription level in comparison to non-treated bacteria", "setting": "[4]; vancomycin 20 μg ml^−1 for 10 minutes", "value": 4.5, "unit": "fold"}]}, {"molecule": "Nc1ncnc2c1ncn2[C@@H]1O[C@@H]2COP(=O)(O)O[C@H]3[C@@H](O)[C@H](n4cnc5c(N)ncnc54)O[C@@H]3COP(=O)(O)O[C@H]2[C@H]1O", "note": "[c-di-AMP, cyclic-di-adenosine monophosphate]", "values": [{"measurement": "effect on growth in the absence of vancomycin stress", "setting": "[5]", "value": "no effect"}, {"measurement": "effect on growth in the presence of vancomycin", "setting": "[5]", "value": "shorter lag phase"}, {"measurement": "effect on growth in the absence of vancomycin stress", "setting": "[6]", "value": "no effect"}, {"measurement": "effect on growth in the presence of vancomycin", "setting": "[6]", "value": "shorter lag phase"}]}, {"molecule": "Nc1nc2c(ncn2[C@@H]2O[C@@H]3COP(=O)(O)O[C@H]4[C@@H](O)[C@H](n5cnc6c(=O)[nH]c(N)nc65)O[C@@H]4COP(=O)(O)O[C@H]3[C@H]2O)c(=O)[nH]1", "note": "[c-di-GMP]", "values": [{"measurement": "effect on growth in the absence of vancomycin stress", "setting": "[5]", "value": "no effect"}, {"measurement": "effect on growth in the presence of vancomycin", "setting": "[5]", "value": "no effect"}, {"measurement": "effect on growth in the absence of vancomycin stress", "setting": "[6]", "value": "no effect"}, {"measurement": "effect on growth in the presence of vancomycin", "setting": "[6]", "value": "no effect"}]}]}
